4 molecules from PMC7070167, “Cell‐permeable high‐affinity tracers for Gq proteins provide structural insights, reveal distinct binding kinetics and identify small molecule inhibitors” (British Journal of Pharmacology, 2020) can be followed below.

Assay [1] has as its system Gq signalling (IP1 production) via Dq. Put plainly: IP1 assay in brown preadipocytes expressing Gq-coupled designer GPCR (Dq), CNO. The assay is classed as cell-based, mouse. As to conditions: Ebselen 50 μM. As for the experimental part: (§1) Intracellular concentrations of the second messenger IP1 in brown preadipocytes were quantified using the HTRF‐IP1 kit (Cisbio Bioassays) following the manufacturer's instructions. […] For ET‐1 experiments, non‐transduced preadipocytes were used. Cells were cultivated for 48 hr in GM (37°C, 5% CO2). For the assay, cells were trypsinized, and cell pellet was washed with PBS. Cell pellet was then resuspended in stimulation buffer containing 50‐mM LiCl and transferred to a 384‐well microtitre plate at a density of 100,000 cells per well in 7 μl of stimulation buffer. After 10 min of incubation, 3.5 μl of stimulation buffer containing inhibitors (50 μM of Ebselen, 1 μM of FR) were added for 1 hr followed by addition of 3.5 μl of stimulation buffer containing agonists (ET‐1, 10 nM; CNO, 10 μM) for 30 min; 3 μl of IP1‐d2 conjugate followed by 3 μl of europium cryptate‐labelled anti‐IP1 antibody dissolved in lysis buffer were added to the cells. After a further dark incubation of 1 hr at room temperature, time‐resolved fluorescence was measured at 620 and 665 nm with the EnSpire (Perkin Elmer) multimode plate reader.

In assay [2] the test system is Gq signalling via recombinantly expressed human P2Y1 receptor. In words: Calcium mobilization assay, ADP-induced (P2Y1 receptor) in 1321N1 astrocytoma cells. It is filed as cell-based. The method, then:
(§2) The functional activity of YM, FR, and Ebselen as Gq protein inhibitors was determined by assessing their ability to antagonize ADP‐induced calcium mobilization in 1321N1 astrocytoma cells stably transfected with the human P2Y1 receptor, which is a Gq‐coupled receptor. In addition, the compounds' inhibitory effects on Carbachol‐induced calcium mobilization were studied in the same cell line, which endogenously express the Gq‐coupled muscarinic M3 ACh receptor. The assays were performed according to a previously described procedure (Rafehi et al., 2017) using a NOVOstar microplate reader (BMG Labtech, Offenburg, Germany).
For orientation: Calcium assays in cells follow changes in intracellular calcium, usually with a dye or a luminescent sensor.

Assay [3] has as its system Gq signalling (IP1 production) induced by ET‐1. In words: IP1 assay in brown preadipocytes, ET-1. The assay is classed as cell-based, mouse. As to conditions: Ebselen 50 μM pretreatment, ET‐1 10 nM. As for the experimental part: as §1
In a further assay the target is T1, Gq proteins (Homo sapiens, UniProt P50148).
T1 construct: Native cell membrane preparations from rat brain cortex and human blood platelets; host or cells: human platelets (intact suspension or membrane preparation)
T1 sequence (P50148 1-359): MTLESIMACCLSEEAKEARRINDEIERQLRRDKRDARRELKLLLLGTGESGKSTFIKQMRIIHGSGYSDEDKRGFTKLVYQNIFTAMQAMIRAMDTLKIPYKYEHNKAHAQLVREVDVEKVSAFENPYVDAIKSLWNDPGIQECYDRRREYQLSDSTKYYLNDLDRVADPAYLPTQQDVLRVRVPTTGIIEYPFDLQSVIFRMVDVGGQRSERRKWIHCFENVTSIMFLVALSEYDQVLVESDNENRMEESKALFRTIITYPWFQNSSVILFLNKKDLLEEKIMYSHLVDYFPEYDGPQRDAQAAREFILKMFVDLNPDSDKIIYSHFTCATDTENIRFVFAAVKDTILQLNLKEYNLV
In words: Competition binding at human platelet membrane preparations. As to conditions: for inhibition or modulation of [^3H]PSB‐15900 binding by G protein inhibitors: concentrations up to 100 μM, preincubation for 3 hr. The method, then: Apheresis‐purified human thrombocyte‐plasma concentrates were centrifuged (1,000 g at 4°C for 10 min), and the supernatant was decanted and centrifuged again (at 48,400 g, 4°C, for 60 min). The supernatant was kept and used as platelet‐poor plasma for control experiments; the formed pellet was resuspended in buffer 1 (50‐mM Tris–HCl, 5‐mM EDTA, and 150‐mM NaCl) and centrifuged at 48,400 g, 4°C for 60 min. The supernatant was discarded again and the pellet was resuspended in buffer 2 (5‐mM Tris–HCl and 5‐mM EDTA). The cell suspension was homogenized using an Ultra‐Turrax® (IKA Laborechnik, Staufen, Germany) for 1 min at a speed level of 4, subsequently transferred into cryovials, and stored at −80°C before use (the preparation is stable for several months). For radioligand binding assays, 50 μg of protein per vial was used, determined by the method of Bradford (Bio‐Rad Protein Assay).
The experiments were performed in 50‐mM Tris–HCl buffer, pH 7.4. The final assay volume of 200 μl contained 5 μl of test compound in DMSO, 50 μl of [^3H]PSB‐15900 or [^3H]PSB‐16254, respectively, in buffer, 5 nM of final concentration, and 100 μl of human platelet membrane preparation (50 μg of protein) or intact human platelets (7.5 × 10^6 cells/vial). Non‐specific binding was determined in the presence of 5‐μM FR. The incubation was started by the addition of membrane preparation and was performed at 37°C for 1 hr with gentle shaking. It was terminated by rapid vacuum filtration through GF/C glass‐fibre filters using a Brandel 24‐well harvester. The filters were rinsed three times with approximately 3 ml each of ice‐cold Tris–HCl buffer, 50 mM, pH 7.4 containing 0.1% Tween 20 and 0.1% BSA, to separate bound from free radioligand. The filters were punched out and transferred to scintillation vials. Luma Safe® scintillation cocktail (2.5 ml) was added, and after 6 hr of incubation, the samples were counted for 1 min each, using a liquid scintillation counter (counting efficiency 53%). Experiments in the presence of GTP were additionally performed after preincubation of the membrane preparation with GTP for 1 hr. pIC50 and pKi values were calculated using equations for one‐site competition as implemented in GraphPad Prism 6.01 (GraphPad Inc., La Jolla, CA, USA).

Assay [4] has as its system primary murine brown adipocytes. Put plainly: Differentiation of primary murine brown adipocytes (Oil Red O, UCP-1, PPARγ). The assay is classed as cell-based, mouse. As to conditions: Ebselen 50 μM, 9 days. The method, then: Ten‐ to 12‐week‐old pregnant wild‐type C57Bl6/J mice were purchased from Charles River and housed in pathogen‐free environment under a 12‐hr light/12‐hr dark cycle having free access to standard rodent diet and water. Brown adipose tissue (BAT)‐derived mesenchymal stem cells were isolated from interscapular BAT of newborn wild‐type mice and further cultured as previously described (Klepac et al., 2016). Specifically, 170,000 cells per well were seeded in growth medium (GM; DMEM supplemented with 10% FBS and 1% penicillin–streptomycin mixture from Sigma‐Aldrich) in a six‐well plate (Day −4); 48 hr later (Day −2), GM was replaced by differentiation medium (DM), which is GM supplemented with 20‐nM insulin and 1‐nM triiodothyronine. At Day 0, cells were treated for 48 hr with BAT induction medium (DM supplemented with 0.5‐mM isobutylmethylxanthine and 1‐μM dexamethasone). For the next 5 days, cells were treated with DM that was replenished every second day. The indicated treatments were added from Day −2 to Day +7 for 9 days to the media, endothelin‐1 (ET‐1; Tocris, 10 nM), or Ebselen (50 μM). Ebselen was added 3 hr prior to ET‐1 treatment. On Day +7, differentiation of cells into mature adipocytes was analysed using Oil Red O staining of lipid droplets. Mature brown adipocytes were washed with PBS and then fixed in 4% paraformaldehyde. […]

Assay [5] relates to Gq signalling via endogenously expressed M3 receptor. In words: Calcium mobilization assay, carbachol-induced (M3 receptor) in 1321N1 astrocytoma cells. The assay is classed as cell-based, human. The method, then: as §2

For the molecule `O=c1c2ccccc2[se]n1-c1ccccc1` [Ebselen], the “effect on CNO‐induced increase in IP1 levels” value in assay [1] (CNO 10 μM, Gq‐DREADD expressing preadipocytes) is “significantly reduced”. Moreover, the “effect on basal IP1 levels” value in assay [1] (absence of agonist (Ctrl), acute treatment) is recorded as “did not affect”. The IC50 in assay [2] (Homo sapiens, versus ADP (EC80), P2Y1 receptor, 1321N1 astrocytoma cells, read-out: pIC50, inhibition of calcium mobilization (converted)) is 2.34 µM; in assay [5] (Homo sapiens, versus Carbachol (EC80), M3 receptor, read-out: pIC50, inhibition of calcium mobilization (converted)) it was 4.37 µM. Besides, the “extent of block of ADP‐induced calcium mobilization” value in assay [2] (recombinant 1321N1 astrocytoma cells) is given as “completely blocked”. The “effect on ET‐1‐induced IP1 production” value in assay [3] was “attenuated”. Besides, the Ki at Gq proteins (versus [^3H]PSB‐15900 (5 nM), human platelet membranes, 37°C, read-out: pKi (converted)) is 9.33 µM. Moreover, in assay [4], the “effect on differentiation of brown adipocytes” value is recorded as “enhanced”. Besides, the “effect on ET‐1‐induced inhibition of brown adipogenesis” value in assay [4] (ET‐1 10 nM) was “rescued”. Further, the “extent of block of carbachol‐induced calcium mobilization” value in assay [5] is listed as “completely blocked”.
For the molecule `N[C@@H](CSSC[C@H](N)C(=O)N1CCn2cc(-c3ccccc3)nc2[C@@H]1CC1CCCCC1)C(=O)N1CCn2cc(-c3ccccc3)nc2[C@@H]1CC1CCCCC1` [BIM‐46187], the “inhibition or modulation of [^3H]PSB‐15900 binding by G protein inhibitors” value on Gq proteins is given as “did not show any inhibition or modulation”.
As for `Nc1nc2c(ncn2[C@@H]2O[C@H](COP(=O)(O)OP(=O)(O)OP(=O)(O)O)[C@@H](O)[C@H]2O)c(=O)[nH]1` [GTP], the “modulation of [^3H]PSB‐15900 binding by nucleotides” value on Gq proteins (100 μM and 1 mM, human platelet membranes, 5 nM radioligand) was “not allosterically modulated”.
As to `N[C@@H](CS)C(=O)N1CCn2cc(-c3ccccc3)nc2[C@@H]1CC1CCCCC1` [BIM‐46174], the “inhibition or modulation of [^3H]PSB‐15900 binding by G protein inhibitors” value on Gq proteins was “did not show any inhibition or modulation”.
